Where no end group is shown, it is not given here.

Series [1] has as its system PV.
The subject of series [2] is cellular translation.
In series [3] the test system is cap-dependent translation (CAT RNA). It counts as biochemical.
Series [4] deals with poliovirus IRES-dependent translation (P2CAT RNA). It counts as biochemical.
Series [5] concerns poliovirus 5'-UTR (IRES)-mediated translation. It counts as biochemical.

As for AALEAKICHQIEYYFGDF [LAP], the “entry into human cells” value in series [1] is “appears to freely diffuse into human cells”. In series [2], the “effect on cellular translation” value is given as “does not interfere with cellular translation”.
“5' GCGCGGGCAGCGCA 3' (chemistry not given here) [BI-RNA]”: in series [3], the “inhibition of cap-dependent translation of CAT (pG3CAT/pCAT) RNA” value was “not cap dependent-translation”. Further, the “inhibition of poliovirus IRES-mediated translation of P2CAT RNA” value in series [4] is listed as “specifically inhibiting translation by internal initiation”.

B1: La protein (protein, UniProt P05455 1-408, looked up)
Lupus La protein: MAENGDNEKMAALEAKICHQIEYYFGDFNLPRDKFLKEQIKLDEGWVPLEIMIKFNRLNRLTTDFNVIVEALSKSKAELMEISEDKTKIRRSPSKPLPEVTDEYKNDVKNRSVYIKGFPTDATLDDIKEWLEDKGQVLNIQMRRTLHKAFKGSIFVVFDSIESAKKFVETPGQKYKETDLLILFKDDYFAKKNEERKQNKVEAKLRAKQEQEAKQKLEEDAEMKSLEEKIGCLLKFSGDLDDQTCREDLHILFSNHGEIKWIDFVRGAKEGIILFKEKAKEALGKAKDANNGNLQLRNKEVTWEVLEGEVEKEALKKIIEDQQESLNKWKSKGRRFKGKGKGNKAAQPGSGKGKVQFQGKKTKFASDDEHDEHDENGATGPVKRAREETDKEEPASKQQKTENGAGDQ
Consider B1, for which, in series [5], the “effect on viral 5'-UTR-mediated translation” value was “Significant stimulation” and the “reversal of I-RNA-mediated inhibition of translation” value was “reversed”.
